Article PMC8216447, “Factors affecting the buccal delivery of deformable nanovesicles based on insulin–phospholipid complex: an in vivo investigation” (Drug Delivery, 2020)

Tested on: normal rabbits
Assay: In vivo hypoglycemic effect, rabbit esophageal ligation model
Conditions: insulin solution 3 mg/mL
Experimental: The relative pharmacological bioactivity of insulin delivered via the transmucosal route by IPC-DNVs in different drug doses, delivery sites, ligation times, drug concentrations, sizes, and deformabilities was evaluated in normal rabbits by assessing the hypoglycemic effects. […] After fasting for 2 h, the rabbits were weighed and anesthetized with pentobarbital (2%, 50 mg/kg) through the ear margin vein. During anesthesia, the animals were restrained in a supine position to a board. The esophagus was surgically ligated to prevent swallowing. The drug solution for buccal administration (oral mucosa) was divided into four parts; two parts for administration via sublingual mucosa, and two parts for administration via left and right buccal mucosa. The sublingual mucosa and the buccal mucosa groups were administered only to the sublingual mucosa or buccal mucosa. After administration of the drug solution for 30 min (except the group with ligation time of 15 min), the esophagus was untied, and the response of the animals was observed. Blood samples were collected from the ear veins at predetermined time intervals (0, 0.5, 1, 1.5, 2, 2.5, 3, 3.5, 4, 4.5, 5, and 6 h) after DNVs administration and blood glucose levels were measured using a Blood Analyzer (ONETOUCH Ultra; Johnson & Johnson, New Brunswick, NJ, USA). […]

Q: Which results are given for “Recombinant human insulin [insulin solution]”?
A: hypoglycemic effect (1 IU/kg, subcutaneous administration): evident; glucose levels within 6 h after buccal administration (10 IU/kg, buccal administration (control)): barely changed
